Reference: US9271971B2, “Pyrido[3,4-B]indoles and methods of use” (Medivation Technologies, Inc., priority 2009, dated 2016)

Key:
[1] = target: human recombinant histamine H1 receptor (Homo sapiens, UniProt P35367); experiment: Histamine H1 radioligand binding assay; details: [3H]Pyrilamine specific binding; for inhibition at 1 µM: read-out: Percentage Inhibition, Histamine Binding (1 μM) H1
Method: To evaluate in radioligand binding assays the activity of compounds of the invention, human recombinant histamine H1 receptor expressed in Chinese hamster ovary (CHO) cells [De Backer, M. D. et al., Biochem. Biophys. Res. Comm. (1993), 197(3):1601] in a modified Tris-HCl buffer (50 mM Tris-HCl, pH 7.4, 2 mM MgCl2, 100 mM NaCl, 250 mM Sucrose) was used. Compounds of the invention were incubated with 1.2 nM [^3H]Pyrilamine for 180 min. at 25° C. Non-specific binding was estimated in the presence of 1 μM pyrilamine. Receptor proteins were filtered and washed, the filters were then counted to determine [^3H]Pyrilamine specifically bound. Compounds were screened at 1 μM or lower, using 1% DMSO as vehicle. Biochemical assay results are presented as the percent inhibition of specific binding in Table 2.

[2] = target: T1, human recombinant adrenergic α1D receptor (Homo sapiens, UniProt P25100); experiment: Adrenergic α1D radioligand binding assay; details: [3H]Prozosin specific binding; for inhibition at 1 µM: read-out: Percent Inhibition of ligand binding, Adrenergic (1 μM ligand conc.) α1D; for inhibition at 0.1 µM: read-out: Percent Inhibition of ligand binding, Adrenergic (0.1 μM ligand conc.) α1D
T1 construct: expressed in transfected cells; host or cells: human embryonic kidney (HEK-293) cells
T1 sequence (P25100 1-572): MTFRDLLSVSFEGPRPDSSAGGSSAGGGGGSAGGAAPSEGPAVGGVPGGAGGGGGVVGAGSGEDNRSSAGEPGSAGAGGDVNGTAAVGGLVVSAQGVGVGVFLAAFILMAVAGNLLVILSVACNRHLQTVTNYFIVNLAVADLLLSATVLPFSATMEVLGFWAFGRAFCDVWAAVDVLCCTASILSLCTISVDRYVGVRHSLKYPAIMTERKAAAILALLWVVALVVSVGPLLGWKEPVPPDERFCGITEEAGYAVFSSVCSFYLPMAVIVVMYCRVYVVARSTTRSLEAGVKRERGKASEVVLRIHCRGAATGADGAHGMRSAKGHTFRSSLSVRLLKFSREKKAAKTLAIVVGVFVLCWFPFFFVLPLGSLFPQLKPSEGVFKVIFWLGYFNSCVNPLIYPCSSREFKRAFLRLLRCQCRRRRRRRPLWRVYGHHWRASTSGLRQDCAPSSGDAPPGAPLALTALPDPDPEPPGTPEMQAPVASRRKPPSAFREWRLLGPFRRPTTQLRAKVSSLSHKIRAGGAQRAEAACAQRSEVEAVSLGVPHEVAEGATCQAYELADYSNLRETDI
Method: To evaluate in radioligand binding assays the activity of compounds of the invention, human recombinant adrenergic α1D receptor expressed in human embryonic kidney (HEK-293) cells [Kenny, B. A. et al. Br. J. Pharmacol. (1995), 115(6):981] in a 50 mM Tris-HCl buffer, pH 7.4, was used. Compounds of invention were incubated with 0.6 nM [^3H]Prozosin for 60 min. at 25° C. Non-specific binding was estimated in the presence of 10 μM phentolamine. Receptor proteins were filtered and washed, the filters were then counted to determine [^3H]Prozosin specifically bound. Compounds were screened at 1 μM or lower, using 1% DMSO as vehicle. Compounds of the invention were tested in this biochemical assay. Biochemical assay results for representative compounds were presented as the percent inhibition of specific binding in Table 3.

[3] = target: T2, human recombinant adrenergic α2A receptor (Homo sapiens, UniProt P08913); experiment: Adrenergic α2A radioligand binding assay; details: [3H]MK-912 specific binding; for inhibition at 1 µM: read-out: Percent Inhibition of ligand binding, Adrenergic (1 μM ligand conc.) α2A; for inhibition at 0.1 µM: read-out: Percent Inhibition of ligand binding, Adrenergic (0.1 μM ligand conc.) α2A
T2 construct: expressed in transfected cells; host or cells: insect Sf9 cells
T2 sequence (P08913 1-465): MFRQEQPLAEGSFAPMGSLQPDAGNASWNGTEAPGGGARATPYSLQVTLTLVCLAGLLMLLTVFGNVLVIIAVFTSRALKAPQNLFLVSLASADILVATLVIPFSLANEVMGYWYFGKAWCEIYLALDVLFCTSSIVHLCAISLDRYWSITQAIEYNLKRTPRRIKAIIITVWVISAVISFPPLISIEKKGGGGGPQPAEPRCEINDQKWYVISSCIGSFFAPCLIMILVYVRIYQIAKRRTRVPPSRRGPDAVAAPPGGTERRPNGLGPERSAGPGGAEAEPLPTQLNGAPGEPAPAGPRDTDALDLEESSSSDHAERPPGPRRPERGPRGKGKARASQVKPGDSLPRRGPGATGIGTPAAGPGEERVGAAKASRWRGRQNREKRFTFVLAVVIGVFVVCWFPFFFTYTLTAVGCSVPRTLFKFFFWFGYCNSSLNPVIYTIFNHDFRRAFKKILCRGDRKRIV
Method: To evaluate in radioligand binding assays the activity of compounds of the invention, human recombinant adrenergic α2A receptor expressed in insect Sf9 cells [Uhlen, S et al. J. Pharmacol. Exp. Ther. (1994), 271:1558] in a modified Tris-HCl buffer (50 mM Tris-HCl, pH 7.4, 12.5 mM MgCl2, 2 mM EDTA) was used. Compounds of invention were incubated with 1 nM [^3H]MK-912 for 60 min. at 25° C. MK912 was (2S-trans)-1,3,4,5′,6,6′,7,12b-octahydro-1′,3′-dimethyl-spiro[2H-benzofuro[2,3-a]quinolizine-2,4′(1′H)-pyrimidin]-2′(3′H)-one hydrochloride Non-specific binding was estimated in the presence of 10 μM WB-4101 (2-(2,6-dimethoxyphenoxyethyl)aminomethyl-1,4-benzodioxane hydrochloride). Receptor proteins were filtered and washed, the filters were then counted to determine [^3H]MK-912 specifically bound. Compounds were screened at 1 μM or lower, using 1% DMSO as vehicle. Compounds of the invention were tested in this biochemical assay. Biochemical assay results for representative compounds were presented as the percent inhibition of specific binding in Table 3.

Chain of human recombinant histamine H1 receptor (P35367 whole entry): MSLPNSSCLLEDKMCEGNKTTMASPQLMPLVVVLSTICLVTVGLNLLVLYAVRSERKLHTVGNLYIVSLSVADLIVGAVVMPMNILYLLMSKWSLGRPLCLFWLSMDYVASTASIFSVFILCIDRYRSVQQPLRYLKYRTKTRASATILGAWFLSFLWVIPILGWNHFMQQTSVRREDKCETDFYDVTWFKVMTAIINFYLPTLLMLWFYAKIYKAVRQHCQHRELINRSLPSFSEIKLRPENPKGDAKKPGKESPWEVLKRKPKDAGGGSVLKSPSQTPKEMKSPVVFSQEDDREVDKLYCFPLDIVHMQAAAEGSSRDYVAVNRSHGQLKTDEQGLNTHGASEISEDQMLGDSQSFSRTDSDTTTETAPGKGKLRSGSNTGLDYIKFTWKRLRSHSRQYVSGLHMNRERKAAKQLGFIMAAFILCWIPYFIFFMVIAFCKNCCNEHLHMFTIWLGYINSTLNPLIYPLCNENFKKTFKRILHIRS

Row | SMILES | inhibition at 1 µM [1] [%] | inhibition at 1 µM [2] [%] | inhibition at 1 µM ([3]; 1 μM) [%] | further results
1 | COc1ccc(C(O)Cn2c3c(c4cc(C)ccc42)C2CCN(C3)C2)cc1F (stereo not shown) [Compound 6] | 86 | 28 | 23 | 
2 | Cc1ccc2c(c1)c1c(n2CC(=O)N2CCCCC2)CN2CCC1C2 (stereo not shown) [Compound 7] | 17 | -7 | 9 | 
3 | C/C(=C\n1c2c(c3cc(C)ccc31)C1CCN(C2)C1)c1ccc(Cl)cc1Cl (stereo not shown) [Compound 33] |  |  | 66 | Percentage Inhibition, Histamine Binding (1 μM) H1 [1]: 76%; inhibition at 0.1 µM [2]: -6%; Percent Inhibition of ligand binding, Adrenergic (1 μM ligand conc.) α1D [2]: 28%; inhibition at 0.1 µM [3]: 13%
4 | C/C(=C\n1c2c(c3cc(C)ccc31)C1CCN(C2)C1)c1ccncc1 (stereo not shown) [Compound 44] | 23 |  |  | inhibition at 0.1 µM [2]: 8%; inhibition at 0.1 µM [3]: -5%
5 | Cc1ccc2c(c1)c1c(n2CCc2nc(-c3ccccc3)cs2)CN2CCC1C2 (stereo not shown) [Compound 19] | 82 | 34 | -10 | 
6 | Cc1ccc2c(c1)c1c(n2CCc2ccccn2)CN2CCC1C2 (stereo not shown) [Compound 11] | 77 | 26 | -15 | 
7 | Cc1ccc2c(c1)c1c(n2CC(C)(O)c2ccc(Cl)c(Cl)c2)CN2CCC1C2 (stereo not shown) [Compound 13] | 24 | 14 | 39 | 
8 | C/C(=C\n1c2c(c3cc(C)ccc31)C1CCN(C2)C1)c1ccc(Cl)cc1Cl (stereo not shown) [Compound 34] |  |  |  | Percentage Inhibition, Histamine Binding (1 μM) H1 [1]: 34%; Percent Inhibition of ligand binding, Adrenergic (1 μM ligand conc.) α1D [2]: 11%; Percent Inhibition of ligand binding, Adrenergic (1 μM ligand conc.) α2A ([3]; 1 μM): 48%
9 | Cc1ccc2c(c1)c1c(n2CC(C)(O)c2ccc(Cl)cc2Cl)CN2CCC1C2 (stereo not shown) [Compound 14] | 37 | -5 | 18 | 
10 | C/C(=C/n1c2c(c3cc(C)ccc31)C1CCN(C2)C1)c1ccccc1F (stereo not shown) [Compound 37] | 78 |  |  | 
11 | Cc1ccc2c(c1)c1c(n2CC(C)(O)c2ccc(Cl)cc2)CN2CCC1C2 (stereo not shown) [Compound 16] | 20 | 24 | 28 | 
12 | Cc1ccc2c(c1)c1c(n2C#Cc2ccc(Cl)cc2)CN2CCC1C2 (stereo not shown) [Compound 35] | 0 |  |  | 
13 | Cc1ccc2c(c1)c1c(n2CCc2cncc(F)c2)CN2CCC1C2 (stereo not shown) [Compound 9] | 89 | 24 | 2 | 
14 | Cc1ccc2c(c1)c1c(n2CC(C)(O)c2ccc(F)c(F)c2)CN2CCC1C2 (stereo not shown) [Compound 15] | 82 | 28 | 21 | 
15 | C/C(=C\n1c2c(c3cc(C)ccc31)C1CCN(C2)C1)c1ccc(F)cc1 (stereo not shown) [Compound 22] | 52 | 81 | 93 | Percentage Inhibition, Histamine Binding (1 μM) H1 [1]: 58%
16 | Cc1ccc2c(c1)c1c(n2CC(O)c2ccccc2)CN2CCC1C2 (stereo not shown) [Compound 4] | 67 | 54 | 54 | 
17 | C/C(=C\n1c2c(c3cc(C)ccc31)C1CCN(C2)C1)c1ccccc1F (stereo not shown) [Compound 38] | 38 |  |  | inhibition at 0.1 µM [2]: -3%; inhibition at 0.1 µM [3]: 3%

Row | SMILES | inhibition at 1 µM [1] [%] | inhibition at 1 µM [2] [%] | inhibition at 1 µM ([3]; 1 μM) [%] | further results
18 | Cc1ccc2c(c1)c1c(n2CC(=O)NC2CCCCC2)CN2CCC1C2 (stereo not shown) [Compound 23] | 13 | 18 | -13 | 
19 | Cc1ccc(/C=C/n2c3c(c4cc(C)ccc42)C2CCN(C3)C2)cc1 (stereo not shown) [Compound 10] | 70 | 73 | 38 | 
20 | Cc1ccc2c(c1)c1c(n2C(=O)Cc2ccc(F)cc2)CN2CCC1C2 (stereo not shown) [Compound 43] | 16 |  |  | 
21 | Cc1ccc2c(c1)c1c(n2CC(=O)c2ccccc2)CN2CCC1C2 (stereo not shown) [Compound 21] | 40 | -4 | 5 | 
22 | Cc1ccc2c(c1)c1c(n2CC(=O)N2CCOCC2)CN2CCC1C2 (stereo not shown) [Compound 26] | 17 | 6 | -4 | 
23 | Cc1ccc2c(c1)c1c(n2CC(C)(O)c2ccc(F)cc2)CN2CCC1C2 (stereo not shown) [Compound 2] | 21 | 15 | 54 | 
24 | Cc1ccc2c(c1)c1c(n2CCc2ccncc2)CN2CCC1C2 (stereo not shown) [Compound 30] | 76 | 40 | 84 | 
25 | Cc1ccc2c(c1)c1c(n2CC(=O)c2ccc(Cl)cc2)CN2CCC1C2 (stereo not shown) [Compound 29] | 56 | 42 | 89 | 
26 | Cc1ccc(C(O)Cn2c3c(c4cc(C)ccc42)C2CCN(C3)C2)cc1 (stereo not shown) [Compound 5] | 48 | 34 | 44 | 
27 | Cc1ccc2c(c1)c1c(n2CC(=O)N2CCNCC2)CN2CCC1C2 (stereo not shown) [Compound 24] | 5 | 2 | 4 | 
28 | Cc1ccc2c(c1)c1c(n2CC(O)c2ccc(F)cc2)CN2CCC1C2 (stereo not shown) [Compound 31] | 42 | 34 | 41 | 
29 | COc1ccc(C(O)Cn2c3c(c4cc(C)ccc42)C2CCN(C3)C2)cc1OC (stereo not shown) [Compound 8] | 33 | 20 | 1 | 
30 | Cc1ccc2c(c1)c1c(n2CCc2ccc(C)nc2)CN2CCC1C2 (stereo not shown) [Compound 12] | 59 | 25 | -4 | 
31 | C/C(=C\n1c2c(c3cc(C)ccc31)C1CCN(C2)C1)c1cccnc1 (stereo not shown) [Compound 42] | 20 |  |  | 
32 | C/C(=C\n1c2c(c3cc(C)ccc31)C1CCN(C2)C1)c1ccc(F)c(F)c1 (stereo not shown) [Compound 39] | 26 |  |  | 
33 | C/C(=C\n1c2c(c3cc(C)ccc31)C1CCN(C2)C1)c1ccc(Cl)c(Cl)c1 (stereo not shown) [Compound 40] | 57 |  |  | 
34 | COc1ccc(/C(C)=C/n2c3c(c4cc(C)ccc42)C2CCN(C3)C2)cc1F (stereo not shown) [Compound 41] | 21 |  |  | 
